Reference: patent US20110165183A1, “PIPERIDINE DERIVATIVES AS JAK3 INHIBITORS” (BioCryst Pharmaceuticals, Inc., priority 2008, published 2011)

Row | melting point [°C] | SMILES
1 | 107.7 | C[C@@H]1CCN(C(=O)CC#N)C[C@@H]1N(C)c1ncnc2ccoc12 [Example 2, 3-((3R,4R)-3-(furo[3,2-d]pyrimidin-4-yl(methyl)amino)-4-methylpiperidin-1-yl)-3-oxopropanenitrile]
2 | 72 | C[C@@H]1CCN(C(=O)CC#N)C[C@@H]1N(C)c1ncnn2ccnc12 [Example 4, 3-((3R,4R)-3-(Imidazo[1,2-f][1,2,4]triazin-4-yl(methyl)amino)-4-methylpiperidin-1-yl)-3-oxopropanenitrile]
3 | 119.3 | Cc1cc(N(C)[C@H]2CN(C(=O)CC#N)CC[C@H]2C)n2ncnc2n1 [Example 8, 3-((3R,4R)-4-Methyl-3-(methyl(5-methyl-1,2,41-triazolo[1,5-a]pyrimidin-7-yl)amino)piperidin-1-yl)-3-oxopropanenitrile]
4 | 74.3 | C[C@@H]1CCN(C(=O)CC#N)C[C@@H]1N(C)c1ncnc2sccc12 [Example 9, 3-((3R,4R)-4-methyl-3-(methyl(thieno[2,3-d]pyrimidin-4-yl)amino)piperidin-1-yl)-3-oxopropanenitrile]
5 | 103.4 | C[C@@H]1CCN(c2ncnn3cccc23)C[C@@H]1N(C)c1ncnn2cccc12 [Example 17, N-Methyl-N-((3R,4R)-4-methyl-1-(pyrrolo[1,2-f][1,2,4]triazin-4-yl)piperidin-3-yl)pyrrolo[1,2-f][1,2,4]triazin-4-amine]
6 | 126.9 | C[C@@H]1CCNC[C@@H]1N(C)c1nccc2[nH]ccc12 [Example 18, N-Methyl-N-((3R,4R)-4-methylpiperidin-3-yl)-1H-pyrrolo[3,2-c]pyridin-4-amine]
